A short description of this assay: Body weight and food consumption after i.p. administration. The class given is in vivo, Sprague-Dawley rats. The following applies: for reducing body weight and food consumption: rat, in vivo; for food consumption / weight gain / body weight relative to control: rats, 5 mg/kg i.p.; for food consumption / weight gain: 18 hours after injection, FIG. 6; for body weight relative to control: at 9 hours as well as 18 hours, FIG. 7. The text has this:
Adult male Sprague-Dawley rats (175-225 g) were used to assess the effect of isoquinoline compounds on food uptake and body weight. Baseline body weight and food consumption measurements were taken for 3 days prior to start of the study (Day 0). On Day −1, the food was taken away from the animals at 5:00 PM. The next morning (Day 0), body weight measurements were taken, and the animals were divided into treatment groups with 6 animals in each group. The treatment groups were saline control, HP 228 positive control and test isoquinoline compounds. Saline was administered i.p. at 1 ml/kg. HP 228 and test isoquinoline compounds were administered i.p. at 5 mg/kg. The injections were initiated at 2:00 PM on Day 0.
Body weight and food consumption measurements were taken at 9 hr (Day 0; 11:00 PM) and at 18 hr (Day 1, 8:00 AM) after injection. At the end of the study, all evaluated parameters (9 and 18 hour body weight and food consumption) were analyzed by standard statistical methods. Significance (P<0.05) was determined by one-way ANOVA, ANOVA for repeated measures, or Student's t-test.
The level of reduction was similar to that seen with HP 228.

Molecules are shown by their SMILES.

With `CNC(CN)CCCCN1Cc2ccccc2C(CNC2CCCCC2)C1c1ccc(Cl)cc1Cl` (stereo not shown) [TRG 2405-190], the “reducing body weight and food consumption” value is “particularly effective at reducing body weight and food consumption”; the food consumption entry is recorded as “significant decrease”; the weight gain result is “significant decrease”.
For `CNC(CN)CCCCN1Cc2ccccc2C(CNC2CCCCC2)C1c1ccc(-c2ccccc2)cc1` (stereo not shown) [TRG 2405-241], the “reducing body weight and food consumption” value is “particularly effective at reducing body weight and food consumption”; the food consumption entry is listed as “significant decrease”; the weight gain entry was “significant decrease”.
Turning to `CNC(CN)CCCCN1Cc2ccccc2C(CNC2CCCCC2)C1c1ccc(Oc2ccccc2)cc1` (stereo not shown) [TRG 2405-252], the “reducing body weight and food consumption” value is “particularly effective at reducing body weight and food consumption”; the “body weight relative to control” value is on record as “significant differences”.
For `CCCOc1ccc(C2C(CNC3CCCCC3)c3ccccc3CN2CCCCC(CN)NC)cc1` (stereo not shown) [TRG 2405-253], the “reducing body weight and food consumption” value was “particularly effective at reducing body weight and food consumption”; the “body weight relative to control” value is reported as “significant differences”.

These data come from patent US6608082B1, “Treatment of erectile dysfunction using isoquinoline compound melanocortin receptor ligands” (Lion Bioscience AG, priority 1998, dated 2003).
